Experimental findings from patent EP0315782A2, “Method for the production of proteins” (priority 1987, dated 1989) are described below.

Type in all cases: cell-based, chinesische Hamster
Test [1] relates to CHO-Zellen. In words: t-PA production in transformed CHO cells, medium with 7.5% FKS, supernatant, direct chromogenic assay (DCA). Conditions: for activation at 1000 µM: CHO, read-out: Steigerung der t-PA-Produktion. The source says: (§1) Der Vektor für die t-PA-Produktion wurde in einem Subklon, CHO-K1-DUX B11, integriert (Urlaub et al., Proceedings of the National Academy of Science, USA, 77: 4216-4220, 1980). Diese Zell-Linie, eine Dihydrofolat Reduktase negative Mutante (DHFR-), ist für eine DHFR-abhängige Selektion der transfizierten Zellklone geeignet. Der Vektor für die humane c-DNA kann ein bekannter Plasmid-Vektor pBR-322 oder deren Abkömmling von Escherichia coli sein. Die Promotorregion für das in Frage kommende Gen und für das DHFR-Gen stammt aus SV 40 und die Terminationsregion für beide Gene von einem Hepatitis B-Oberflächenantigen. In den Beispielen wurden CHO-K1-DUX B11-Zellen, die durch die Plasmide pETPER oder pEPEFR transformiert sind, verwendet (siehe EP-A 0117059).
(§2) Die Zellkulturen werden bei 37°C in einem Hereaus-Brutschrank inkubiert und mit einem Kohlendioxid-Luftgemisch von 7,5% CO₂ in einer relativen Luftfeuchtigkeit von 100% belüftet. Je nach Verfahrensansatz werden unterschiedliche Kulturgefäße benutzt: Spinnergefäße für 100-1000 ml Medium, Roux-Schalen (Nunc) 175 cm² (70-100 ml Medium), 75 cm² (30-50 ml Medium), 25 cm² (7-10 ml Medium) und Mehrfachkulturschalen von Costar mit 2 cm² für 1 ml Kulturen. Für die Stammhaltung werden die Zellen in einer Dichte von 0,2-0,3 x 10⁶ Zellen/ml eingesetzt und alle 2-3 Tage subkloniert.
(§3) Die Protein-Produktion stimulierenden Substanzen können zu den verschiedenen Zeitpunkten jeweils in einer 1:100 Verdünnung zugegeben werden, d.h. sie wurden zuerst in Medium gelöst oder, wenn sie schwerlöslich sind, erst in Äthylalkohol gelöst und danach in Medium zugesetzt und dann das diese Substanz enthaltende Medium dem zellenthaltenden Medium im Verhältnis 1:100 v/v zugegeben.
(§4) In den folgenden Beispielen wurden, um die Stimulierung der t-PA-Synthese hervorzurufen, Zellen einer exponentiell wachsenden Kultur entnommen und in Plastikröhrchen (Falcon) 10 Min. bei 1000 x g in einer Beckmann T 3-6 Zentrifuge abzentrifugiert. Nach Dekantieren des Überstandes wurde das Zellpellet mit frischem Medium resuspendiert.
(§5) Für die Produktion von t-PA in serumhaltigem Medium wurde als frisches Medium F12/DMEM + 7,5% FKS + Gentamycin verwendet. Die resultierende Suspension kann in 2 cm² 24 Wells-Platten bei einer Zelldichte von 0,2-0,3 x 10⁶ Zellen/ml angesetzt werden.
(§6) Aliquots von Zellüberständen und Zellextrakten wurden zu verschiedenen Zeitpunkten abgenommen bzw. hergestellt. Die Messung der Proben erfolgte entweder sofort oder nach Aufbewahrung bei -20°C mit folgenden Methoden:
Von dem synthetischen Peptidsubstrat S-2288 (D-H-Ile-Pro-Arg-p-Nitroanilin) der Firma Kabi Diagnostica wird durch das t-PA p-Nitroanilin als Reaktionsprodukt gebildet. Die Aktivität von t-PA ist zur Bildung von p-Nitroanilin proportional, die bei […], 37°C, gemessen wird.
Die spektrophotometrische Bestimmung der Enzymkinetik wurde mit einem ACP-5010-Analysengerät der Firma Eppendorf automatisch durchgeführt.
Die Aktivität des Enzyms wurde anhand dieses vorgegebenen Standards berechnet. Eine t-PA-Standardreihe von 1-15 µg/ml wurde mit einem Laborstandard hergestellt, der zu 72% aus 1-kettigem Material besteht.
Die Substratlösung (100 mM Tris/106 mM NaCl) wurde in einer Konzentration von 50 mM eingesetzt.

Test [2] deals with CHO-Zellen. Briefly: t-PA production in transformed CHO cells, medium with 7.5% FKS, supernatant and cell extract, ELISA. As to conditions: for activation at 1000 µM: CHO.
Description: as §1, §2, §3, §4, §5, §6
Mit Hilfe eines ELISA (Enzyme-linked-immuno-sorbent-assay) wurden die t-PA-Proben des Überstandes und des Zellextraktes quantitativ bestimmt. Als Standard diente ein Laborstandard in einer Konzentrationsreihe von 0,038-5 µg/ml. Die Proben wurden 1:10 bis 1:1000 vorverdünnt.
(In an ELISA, binding on a coated surface is turned into a signal by an enzyme label.)

In test [3] the test system is CHO-Zellen. Briefly: t-PA production in transformed CHO cells, serum-free medium (DCA or determination method not given). Conditions: serum-free medium.
Description: Diese Zell-Linie, eine Dihydrofolat Reduktase negative Mutante (DHFR-), ist für eine DHFR-abhängige Selektion der transfizierten Zellklone geeignet. […] Die Promotorregion für das in Frage kommende Gen und für das DHFR-Gen stammt aus SV 40 und die Terminationsregion für beide Gene von einem Hepatitis B-Oberflächenantigen.
Im folgenden Beispiel wird ein nachseziertes DMEM/Ham's F 12 Medium (1:1) (Gibco) als serumfreies Medium verwendet. Als Zusatz wird fötales Kälberserum (FKS) in einer Konzentration von 7,5% oder 1-2% verwendet.
as §2, §3, §4
(§7) Für die Produktion von t-PA in serumfreiem Medium wurden die Zellen zuvor 3-4 Tage in einem Medium von 1-2% FKS adaptiert, wieder abzentrifugiert und das Zellpellet in serumfreiem Medium resuspendiert und anschließend in 2 cm² 24 Wells-Platten in einer Zelldichte von 0,4-0,5 x 10⁶ Zellen/ml überführt.
as §6
Die Aktivität des Enzyms wurde anhand dieses vorgegebenen Standards berechnet.

The test system of test [4] is CHO-Zellen. In words: t-PA production in transformed CHO cells, serum-free medium, ELISA. As to conditions: in 1 µM Aphidicolin-treated cultures, after 96 h.
Description: as §1
Als serumfreies Medium stehen verschiedene bekannte Produkte zur Verfügung (siehe z.B. BMFT-Statusseminar 12, 13. November 1985, Bundesministerium für Forschung und Technologie, 5300 Bonn 2, Seite 111-120). Im folgenden Beispiel wird ein nachseziertes DMEM/Ham's F 12 Medium (1:1) (Gibco) als serumfreies Medium verwendet. Als Zusatz wird fötales Kälberserum (FKS) in einer Konzentration von 7,5% oder 1-2% verwendet.
as §2, §3
In den folgenden Beispielen wurden, um die Stimulierung der t-PA-Synthese hervorzurufen, Zellen einer exponentiell wachsenden Kultur entnommen und in Plastikröhrchen (Falcon) 10 Min. bei 1000 x g in einer Beckmann T 3-6 Zentrifuge abzentrifugiert. Nach Dekantieren des Überstandes wurde das Zellpellet mit frischem Medium resuspendiert. […]
Mit Hilfe eines ELISA (Enzyme-linked-immuno-sorbent-assay) wurden die t-PA-Proben des Überstandes und des Zellextraktes quantitativ bestimmt. […]

The test system of test [5] is CHO-Zellen. Briefly: Cell growth / cell division of transformed CHO cells. Conditions: serum-free medium. How it is done: as §2, §5, §7
Test [6] concerns CHO-Zellen. In words: t-PA production in transformed CHO cells, medium and determination method not stated. As to conditions: day 5; medium not clearly stated.
Description: as §1, §2, §3, §4
Aliquots von Zellüberständen und Zellextrakten wurden zu verschiedenen Zeitpunkten abgenommen bzw. hergestellt. Die Messung der Proben erfolgte entweder sofort oder nach Aufbewahrung bei -20°C mit folgenden Methoden: […]

Each structure is given as a SMILES string.

Consider `CCCC(=O)O` [Na-Butyrat], for which the activation at 1000 µM in the test on CHO-Zellen [1] (48 h, Table 6, 1 mM at each medium change (Applikation Tag 0, 2, 4, 7), Mediumwechsel Tag 2, 1 ml supernatant vs control (0%)) turned out to be 33%; in the test with CHO-Zellen [1] (96 h, Table 6, 1 mM at each medium change (Applikation Tag 0, 2, 4, 7), Mediumwechsel Tag 4, 1 ml supernatant vs control (0%)), 107%; in the test with CHO-Zellen [1] (168 h, Table 6, 1 mM at each medium change (Applikation Tag 0, 2, 4, 7), Mediumwechsel Tag 7, 1 ml supernatant vs control (0%)), 96.6%; in the test on CHO-Zellen [1] (216 h, Table 6, 1 mM at each medium change (Applikation Tag 0, 2, 4, 7), Mediumwechsel Tag 9, 1 ml supernatant vs control (0%)), 62%; in the test with CHO-Zellen [2] (24 h, read-out: Stimulierung der t-PA-Synthese extrazellulär), 68.5%; in the test on CHO-Zellen [2] (24 h, read-out: Stimulierung der t-PA-Synthese intrazellulär), 90.9%. Also, the activation at 1000 µM with CHO-Zellen [2] (48 h, read-out: Stimulierung der t-PA-Synthese extrazellulär) came out at 119%; with CHO-Zellen [2] (48 h, read-out: Stimulierung der t-PA-Synthese intrazellulär) it was 99.7%; with CHO-Zellen [2] (72 h, read-out: Stimulierung der t-PA-Synthese extrazellulär), 223%; in the test with CHO-Zellen [2] (72 h, read-out: Stimulierung der t-PA-Synthese intrazellulär), 93.9%; with CHO-Zellen [2] (96 h, read-out: Stimulierung der t-PA-Synthese extrazellulär), 281%; in the test with CHO-Zellen [2] (96 h, read-out: Stimulierung der t-PA-Synthese intrazellulär), 210%. For the same compound, the “maximaler t-PA-Gehalt” value in the test with CHO-Zellen [1] (DCA, supernatant (Abb. 9B)) was 47,4 ± 7,4 µg t-PA/1 x 10⁶ Zellen. Further, the “prozentuale Steigerung im Überstand” value with CHO-Zellen [1] (after 24 h, average of DCA and Elisa, vs control) is 19,2%. Also, in the test with CHO-Zellen [1] (day 3, medium with 7,5% FKS (Abb. 7)), the “maximale Steigerung der t-PA-Produktion” value is reported as 37,2 ± 5,1%. Moreover, the “t-PA-Konzentration im Überstand” value in the test with CHO-Zellen [2] (Elisa, starting value of the rise during the first 4 days) is reported as 7,5 ± 1,1 µg t-PA/ 1 x 10⁶ Zellen; in the test with CHO-Zellen [2] (Elisa, value reached in the rise during the first 4 days), 28,9 ± 5,3 µg t-PA/ 1 x 10⁶ Zellen. Moreover, in the test with CHO-Zellen [2] (after 24 h incubation, vs control (Abb. 8)), the “Zunahme des intrazellulären t-PA-Gehaltes” value was 43,8 ± 9,8%. Besides, the “intrazelluläre t-PA-Gehalt” value in the test with CHO-Zellen [2] (value from which the content falls (until day 5) (Abb. 9C)) is listed as 1,5 ± 0,2 µg t-PA/1 x 10⁶ Zellen. Moreover, in the test on CHO-Zellen [3] (1 day after application), the “Steigerung der t-PA-Synthese gegenüber der Kontrolle” value was 44,1 ± 7,1%. Moreover, the “maximale Steigerung” value in the test on CHO-Zellen [3] (3 days after application) was 143,3 ± 12,8%. The Steigerungseffekt in the test with CHO-Zellen [3] (6 days after addition) is 49,9 ± 7,0%. Also, in the test with CHO-Zellen [4], the “weitere Steigerung der t-PA-Synthese” value is recorded as 14%.
`O=C(O)CS` [Thioglykolsäure]: the activation at 1000 µM in the test on CHO-Zellen [1] (24 h, Table 9, 1 mM, Zeit 24 h, Applikationstag 0, 7,5% FKS, 1 ml supernatant vs control (0%)) is 27.6%; with CHO-Zellen [1] (24 h, Table 9, 1 mM, Zeit 24 h, Applikationstag 1, 7,5% FKS, 1 ml supernatant vs control (0%)), 34.7%; in the test with CHO-Zellen [1] (24 h, Table 9, 1 mM, Zeit 24 h, Applikationstag 2, 7,5% FKS, 1 ml supernatant vs control (0%)), 34.5%; in the test with CHO-Zellen [1] (48 h, Table 9, 1 mM, Zeit 48 h, Applikationstag 0, 7,5% FKS, 1 ml supernatant vs control (0%)), 16.9%; in the test with CHO-Zellen [1] (48 h, Table 9, 1 mM, Zeit 48 h, Applikationstag 1, 7,5% FKS, 1 ml supernatant vs control (0%)), 17.1%; in the test with CHO-Zellen [1] (48 h, Table 9, 1 mM, Zeit 48 h, Applikationstag 2, 7,5% FKS, 1 ml supernatant vs control (0%)), 16.3%. Moreover, the activation at 1000 µM worked out at 14.7% in the test with CHO-Zellen [1] (72 h, Table 9, 1 mM, Zeit 72 h, Applikationstag 0, 7,5% FKS, 1 ml supernatant vs control (0%)); 10.2% in the test on CHO-Zellen [1] (72 h, Table 9, 1 mM, Zeit 72 h, Applikationstag 1, 7,5% FKS, 1 ml supernatant vs control (0%)); 9.4% in the test on CHO-Zellen [1] (72 h, Table 9, 1 mM, Zeit 72 h, Applikationstag 2, 7,5% FKS, 1 ml supernatant vs control (0%)); 3.4% in the test with CHO-Zellen [1] (96 h, Table 9, 1 mM, Zeit 96 h, Applikationstag 0, 7,5% FKS, 1 ml supernatant vs control (0%)); 2.7% with CHO-Zellen [1] (96 h, Table 9, 1 mM, Zeit 96 h, Applikationstag 1, 7,5% FKS, 1 ml supernatant vs control (0%)); 0.5% in the test with CHO-Zellen [1] (96 h, Table 9, 1 mM, Zeit 96 h, Applikationstag 2, 7,5% FKS, 1 ml supernatant vs control (0%)). In addition, the activation at 1000 µM in the test on CHO-Zellen [2] (96 h, 1 mM, Elisa, per 1 x 10⁶ cells, day 4 (Abb. 17B), read-out: Steigerungsrate) is roughly 35%. In addition, the “optimaler Dosisbereich” value in the test with CHO-Zellen [1] (Table 8, 7,5% FKS, bracketed value = concentration of the single sample) amounted to 1 mM. Moreover, in the test with CHO-Zellen [1] (Table 8, mean ± SE, n = 6-19, runs of 3 days, added day 0 to 2, 7,5% FKS, 1 ml supernatant vs control (0%)), the “% Steigerung der t-Pa-Synthese Durchschnitt” value was 31,2 ± 3,2%. Further, the “% Steigerung der t-Pa-Synthese Maximum” value in the test with CHO-Zellen [1] (Table 8, single sample, 7,5% FKS, 1 ml supernatant vs control (0%)) was 66,4%. In the test on CHO-Zellen [1] (duration of raised production after treatment, independent of application day), the “t-PA-Produktion erhöht (Dauer)” value turned out to be 72 h. For the same compound, the “Maximalwert des Steigerungseffektes erreicht nach” value with CHO-Zellen [1] (time to maximal effect (Abb. 15)) is reported as 24 h. Besides, in the test with CHO-Zellen [2] (1 mM, after 24 h (Abb. 17C)), the “maximale intrazelluläre t-PA-Konzentration” value is given as 1,1 ± 0,1 µg/l x 10⁶ Zellen. The “Hemmung der Zellteilung” value in the test on CHO-Zellen [5] was 10-20%. Besides, in the test with CHO-Zellen [6], the “extrazelluläre t-PA-Konzentration gegenüber der Kontrolle gesteigert” value is 10,7%.
